Source: PubChem BioAssay AID588574 (Sanford-Burnham Center for Chemical Genomics, 2011)
Calls of active or inactive are those of the source. The rule behind the calls is not given here.

Molecular target: Caspase-3 (Homo sapiens) + Caspase-9 (Homo sapiens) (UniProt P42574+P55211)
Experiment: inhibition of LZ-caspase-9 coupled caspase-3 activity – biochemical, fluorescence, uHTS hits, selectivity assay, dose response (AID 588574)
Conditions: LZ-caspase-9/caspase-3 coupled fluorogenic substrate

Caspase-3 (Homo sapiens) + Caspase-9 (Homo sapiens), sequence (P42574 whole entry, looked up): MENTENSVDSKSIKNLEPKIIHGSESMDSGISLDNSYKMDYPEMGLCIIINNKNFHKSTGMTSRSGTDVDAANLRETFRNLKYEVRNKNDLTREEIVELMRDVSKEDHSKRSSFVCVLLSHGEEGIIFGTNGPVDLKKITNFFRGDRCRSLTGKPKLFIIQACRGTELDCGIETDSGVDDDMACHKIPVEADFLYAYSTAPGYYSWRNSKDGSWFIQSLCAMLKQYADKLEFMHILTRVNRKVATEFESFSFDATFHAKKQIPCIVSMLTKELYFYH
Caspase-3 (Homo sapiens) + Caspase-9 (Homo sapiens), sequence (P55211 whole entry, looked up): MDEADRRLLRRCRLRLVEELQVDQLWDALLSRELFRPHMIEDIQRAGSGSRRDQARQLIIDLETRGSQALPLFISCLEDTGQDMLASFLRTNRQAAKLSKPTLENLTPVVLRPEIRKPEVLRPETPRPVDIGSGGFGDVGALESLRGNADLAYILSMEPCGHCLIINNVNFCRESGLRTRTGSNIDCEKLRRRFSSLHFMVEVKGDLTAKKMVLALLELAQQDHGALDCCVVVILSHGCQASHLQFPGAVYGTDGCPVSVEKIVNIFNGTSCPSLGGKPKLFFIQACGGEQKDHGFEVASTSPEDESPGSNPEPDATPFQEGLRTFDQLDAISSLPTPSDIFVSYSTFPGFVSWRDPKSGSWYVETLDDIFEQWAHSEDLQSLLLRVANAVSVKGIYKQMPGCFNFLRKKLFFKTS

Compound | IC50
CC1=NN(c2ccc(Cl)cc2)C(=O)C1C(c1ccccc1O)c1c(C)[nH]n(-c2ccc(Cl)cc2)c1=O (stereo not drawn) | 46.1 µM
O=C1C(O)=C(O)C(=O)c2ccccc21 | 10.2 µM
Oc1ccc(/C=N/Nc2cc(N3CCCC3)nc(N3CCCC3)n2)cc1 | 5.44 µM
CCCCCCc1cc2cc(-c3nnc(-c4ccccc4OC)o3)c(=O)oc2cc1O | 14.7 µM
Oc1ccccc1/C=N/Nc1cc(N2CCCC2)nc(N2CCCC2)n1 | 2.51 µM
O=C(N/N=C/c1cc(Cl)cc([N+](=O)[O-])c1O)NC12CC3CC(CC(C3)C1)C2 | 9.15 µM
CC(=O)N(Cc1ccc(F)cc1)C1=C(NCCc2ccccc2)C(=O)c2ccccc2C1=O | 8.49 µM
COc1ccc(NC2=C(NCCO)C(=O)c3ccccc3C2=O)cc1 | 10.6 µM
Oc1ccc(/C=N/Nc2cc(N3CCCC3)nc(N3CCCC3)n2)cc1O | 10.7 µM
O=C1C(Cl)=C(NCCN2CCCCC2)C(=O)c2ccccc21 | 6.08 µM
O=[N+]([O-])c1ccc(N/N=C/c2ccc(O)c(O)c2O)c(S(=O)(=O)N2CCOCC2)c1 | 20.4 µM
CC1(C)C=C2C(=NN(c3ccccc3)C(N)=C2C#N)CO1 | 4.31 µM
CCC(=O)N(C1=C(NC)C(=O)c2ccccc2C1=O)C(C)C | 24.6 µM
CCCCCCc1cc2cc(-c3nnc(-c4ccccc4)o3)c(=O)oc2cc1O | 6.31 µM
CCN(CC)CCOC(=O)c1ccc(N/C=C(/C#N)c2nc(-c3ccc(OC)c(OC)c3)cs2)cc1 | > 100 µM (inactive)
CCOC(=O)C1=C(c2ccccc2)NC(N)=NC1c1ccc(OCc2ccc(C(=O)OC)cc2)cc1 (stereo not drawn) | 16 µM
CCN(CC)CCCNC1=C(Cl)C(=O)c2ccccc2C1=O | 16.1 µM
CN(C)c1cc(N/N=C\c2ccccc2)nc(N(C)C)n1 | 3.53 µM
COc1ccc(/C=N/Nc2cc(N3CCCC3)nc(N3CCCC3)n2)cc1 | 3.91 µM

Compound | IC50
CCN(CC)CCOC(=O)c1ccc(N/C=C(/C#N)c2nc(-c3ccc4c(c3)OCO4)cs2)cc1 | > 100 µM (inactive)
CC1=NN(c2ccc(C(F)(F)F)cn2)C(=O)C1 | 8.21 µM
CCN(CC)CCOC(=O)c1ccc(N/C=C(/C#N)c2nc(-c3cc4ccccc4oc3=O)cs2)cc1 | > 100 µM (inactive)
Oc1cccc(/C=N/Nc2cc(N3CCCC3)nc(N3CCCC3)n2)c1 | 12.5 µM
O=c1cc(N/N=C/c2ccccc2)[nH]c(=O)[nH]1 | 19.4 µM
CSc1ccc(C=NNc2ccc(S(=O)(=O)Nc3ccccc3C(=O)O)cc2[N+](=O)[O-])cc1 | 8.5 µM
CCOC(=O)C1=C(c2ccccc2)NC(N)=NC1c1ccc(OCc2ccc(Cl)cc2)c(OC)c1 (stereo not drawn) | 15.8 µM
O=C1C(C2=C(O)c3ccccc3C2=O)=Nc2ccccc21 | 5.3 µM
CC(C)CCC(C)N=Cc1c(O)n(Cc2ccccc2)c(=O)c2ccccc12 (stereo not drawn) | 4.43 µM
O=C1C(Cl)=C(NCc2cccnc2)C(=O)c2ccccc21 | 8.43 µM
Cc1[nH]n(-c2ccccc2)c(=O)c1/C=N/Nc1nncc(-c2ccccc2)n1 | 2.23 µM
CC(C)c1ccc(/C=N/Nc2cc(N3CCOCC3)nc(N3CCOCC3)n2)cc1 | > 100 µM (inactive)
COc1ccc(/C=N/Nc2cc(N(C)C)nc(N(C)C)n2)cc1 | 1.16 µM
O/C=c1\ccc2cccc3nc(C(F)(F)F)nc1c23 | 11.8 µM
O=C1C(Cl)=C(NCCN2CCOCC2)C(=O)c2ccccc21 | 23.3 µM
CN(C)c1cc(N/N=C/c2ccccc2C(F)(F)F)nc(N(C)C)n1 | 6.79 µM
Oc1ccc(/C=N\Nc2cc(N3CCOCC3)nc(N3CCOCC3)n2)c(O)c1 | 57.9 µM
CCCc1[nH]nc2c1C(c1ccc(OC)c(CSC3=NCCS3)c1)C(C#N)=C(N)O2 (stereo not drawn) | 14.3 µM
Cc1ccc(NC2=C(NCCO)C(=O)c3ccccc3C2=O)cc1 | 6.91 µM
